Measurements reported in patent US20260041744A1, “Methods for Treating Pompe Disease” (Amicus Therapeutics, Inc., priority 2022, published 2026).
Values joined by “and” are separate entries in the source; they are usually repeats but may differ in a detail not shown here. Equal values may be shown once.

How the values were obtained:
[1] = in vivo
Description: Mean (SD) duration of treatment was 37.2 (14.48), 19.9 (4.13) and 36.9 (12.14) months in cohorts 1 (prior ERT 2-6 years), 4 (prior ERT ≥7 years) and 3 (ERT naive), respectively.
Mean (SD) duration of treatment was 46.3 (22.86) months.

[2] = tested on: adult subjects with late-onset Pompe disease (LOPD); assay: Study ATB200-03: SGIC, PGIC and additional PROs (PROMIS-dyspnea, PROMIS-upper extremity, R-PAct, EQ-5D-5L); format: in vivo, human; conditions: week 52
Description: Additional PROs included PROMIS-dyspnea, PROMIS-upper extremity, R-PACT, EQ-5D-5L, SGIC. The PGIC was also included.
Across all of these domains a greater percentage of patients in the overall population treated with cipaglucosidase alfa/miglustat reported improvement, and a lower percentage reported worsening, compared with patients treated with alglucosidase alfa. […] Results are shown below for the SGIC overall physical well-domain, which is representative of the benefits reported across these measures (FIG. 86).

[3] = in vivo; remark: listed apart in the source
Description: The ongoing open-label extension (OLE) of PROPEL (NCT04138277; ATB200-07) evaluates long-term safety and efficacy of cipa/mig. Outcomes include 6 minute walk distance (6MWD), forced vital capacity (FVC), creatine kinase (CK) and hexose tetrasaccharide (Hex4) levels and safety. Data are reported as change from the PROPEL baseline to OLE week 52 (104 weeks after the PROPEL baseline).

[4] = tested on: adults with Pompe disease; assay: Study ATB200-02 (20 mg/kg cipaglucosidase alfa IV + 260 mg miglustat): 6MWT (6MWD, % predicted 6MWD); format: in vivo, human;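 also: Open-label Phase I/II trial, ambulatory cohorts only, values are changes from baseline or counts relative to the baseline walk test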
Description: The change from baseline (CFBL) in 6MWD, % predicted sitting FVC, manual muscle test (MMT) and biomarkers—urine glucose tetrasaccharide (Hex4) and serum creatine kinase (CK)—were assessed at regular intervals.
The 4 cohorts in the study are as follows: • Cohort 1: ERT-experienced (2 to 6 years) ambulatory subjects (11 subjects) • Cohort 2: ERT-experienced (≥2 years) non-ambulatory subjects (6 subjects) • Cohort 3: ERT-naïve ambulatory subjects (6 subjects)· • Cohort 4: ERT-experienced (≥7 years) ambulatory subjects (6 subjects)
In Study ATB200-02, motor function was evaluated in all ambulatory subjects (ie, Cohorts 1, 3, and 4) (Table 23, FIGS. 46A-46D).

[5] = Ambulatory ERT-experienced, 12 months
[6] = Ambulatory ERT-experienced, 24 months
[7] = Ambulatory ERT-experienced, 36 months
[8] = Ambulatory ERT-experienced, 48 months
[9] = Ambulatory ERT-naïve, 12 months
[10] = Ambulatory ERT-naïve, 24 months
[11] = Ambulatory ERT-naïve, 36 months
[12] = Ambulatory ERT-naïve, 48 months
[13] = Cohort 1 + Cohort 3 + Cohort 4, Month 12
[14] = Cohort 1 + Cohort 3 + Cohort 4, Month 24
[15] = Cohort 1 + Cohort 3 + Cohort 4, Month 36
[16] = Cohort 1 + Cohort 3 + Cohort 4, Month 48

## ATB200/miglustat: two-component therapy: cipaglucosidase alfa (ATB200) administered in conjunction with miglustat (AT2221), a stabilizer of cipaglucosidase alfa
[1]
  patients with nasopharyngitis and with diarrhea (most common TEAEs): 3 patients
[2]
  SGIC and PGIC outcome: SGIC and PGIC showed consistently greater improvement favoring cipaglucosidase alfa/miglustat treatment
[3]
  patients who discontinued the OLE due to infusion-associated reactions: Three
  safety and tolerability up to 104 weeks: No new safety signals were identified
[4]; 48 months, Cohorts 1, 3, 4
  motor function by 6MWT: clinically meaningful improvements in motor function as measured by the 6MWT
[4]; [5]
  6MWD, CFBL mean: 33.5 meters
  Percent predicted 6MWD, CFBL mean: 6.1
[4]; [6]
  6MWD, CFBL mean: 25.2 meters
  Percent predicted 6MWD, CFBL mean: 5.4
[4]; [7]
  6MWD, CFBL mean: 9.8 meters
  Percent predicted 6MWD, CFBL mean: 3.4
[4]; [8]
  6MWD, CFBL mean: 20.7 meters
  Percent predicted 6MWD, CFBL mean: 5.9
[4]; [9]
  6MWD, CFBL mean: 57.0 meters
  Percent predicted 6MWD, CFBL mean: 10.7
[4]; [10]
  6MWD, CFBL mean: 54.4 meters
  Percent predicted 6MWD, CFBL mean: 11.0
[4]; [11]
  6MWD, CFBL mean: 43.5 meters
  Percent predicted 6MWD, CFBL mean: 9.0
[4]; [12]
  6MWD, CFBL mean: 52.2 meters
  Percent predicted 6MWD, CFBL mean: 11.7
[4]; [13]
  6MWD change from baseline, mean: 39.9 meters
  6MWD change from baseline, median: 27.4 meters
[4]; [14]
  6MWD change from baseline, mean: 34.4 meters
  6MWD change from baseline, median: 22.6 meters
[4]; [15]
  6MWD change from baseline, mean: 19.7 meters
  6MWD change from baseline, median: 24.2 meters
[4]; [16]
  6MWD change from baseline, mean: 30.4 meters
  6MWD change from baseline, median: 27.0 meters
[4]; Cohort 1 + Cohort 4 (ERT-experienced), Month 12, listed as cipaglucosidase alfa/miglustat
  6MWD change from baseline, mean: 33 meters and 33.5 meters
[4]; Cohort 1 + Cohort 4 (ERT-experienced), Month 24, listed as cipaglucosidase alfa/miglustat
  6MWD change from baseline, mean: 25 meters and 25.2 meters
[4]; Cohort 1 + Cohort 4 (ERT-experienced), Month 36, listed as cipaglucosidase alfa/miglustat
  6MWD change from baseline, mean: 9.8 meters
[4]; Cohort 1 + Cohort 4 (ERT-experienced), Month 48, listed as cipaglucosidase alfa/miglustat
  6MWD change from baseline, mean: 20 meters and 20.7 meters
[4]; Cohort 1 + Cohort 4, Month 12
  6MWD change from baseline, median: 20.6 meters
[4]; Cohort 1 + Cohort 4, Month 24
  6MWD change from baseline, median: 18.5 meters
[4]; Cohort 1 + Cohort 4, Month 36
  6MWD change from baseline, median: 11.6 meters
[4]; Cohort 1 + Cohort 4, Month 48
  6MWD change from baseline, median: 27.0 meters
[4]; Cohort 3 (ERT-naïve), Month 12, listed as cipaglucosidase alfa/miglustat
  6MWD change from baseline, mean: 57 meters and 57.0 meters
[4]; Cohort 3 (ERT-naïve), Month 24, listed as cipaglucosidase alfa/miglustat
  6MWD change from baseline, mean: 54 meters and 54.4 meters
[4]; Cohort 3 (ERT-naïve), Month 36, listed as cipaglucosidase alfa/miglustat
  6MWD change from baseline, mean: 43 meters and 43.5 meters
[4]; Cohort 3 (ERT-naïve), Month 48, listed as cipaglucosidase alfa/miglustat
  6MWD change from baseline, mean: 52 meters and 52.2 meters
[4]; Cohort 3, Month 12
  6MWD change from baseline, median: 55.6 meters
[4]; Cohort 3, Month 24
  6MWD change from baseline, median: 49.0 meters
[4]; Cohort 3, Month 36
  6MWD change from baseline, median: 59.0 meters
[4]; Cohort 3, Month 48
  6MWD change from baseline, median: 40.5 meters
[4]; ERT-experienced, 12 months
  patients whose 6MWD improved numerically from baseline (n/N): 13/16
[4]; ERT-experienced, 24 months
  patients whose 6MWD improved numerically from baseline (n/N): 9/13
[4]; ERT-experienced, 36 months
  patients whose 6MWD improved numerically from baseline (n/N): 6/12
[4]; ERT-experienced, 48 months
  patients whose 6MWD improved numerically from baseline (n/N): 6/9
[4]; ERT-experienced, Month 48
  patients with improvement from baseline in mean % predicted 6MWD: 88.9%
[4]; ERT-naïve, 12 months
  patients whose 6MWD improved numerically from baseline (n/N): 6/6
[4]; ERT-naïve, 24 months
  patients whose 6MWD improved numerically from baseline (n/N): 6/6
[4]; ERT-naïve, 36 months
  patients whose 6MWD improved numerically from baseline (n/N): 4/5
[4]; ERT-naïve, 48 months
  patients whose 6MWD improved numerically from baseline (n/N): 4/4
[4]; ERT-naïve, Month 48
  patients with improvement from baseline in mean % predicted 6MWD: 100%
